The record followed here is US20260062422A1 (Halda Therapeutics OpCo, Inc., priority 2022, published 2026).

The Ki is the equilibrium dissociation constant of an inhibitor or competing ligand from its target. Broadly, the GI50 is the concentration at which growth is held to half of that of the control. A low value points to greater sensitivity of the cells. The term Kd denotes the equilibrium constant for the complex coming apart.

A value given as a limit tells only on which side of the number the result lay.

One experiment deals with T1, progesterone receptor (Homo sapiens, UniProt P06401).
T1 construct: host or cells: T47D cells (cytosolic fraction)
T1 sequence (P06401 1-933): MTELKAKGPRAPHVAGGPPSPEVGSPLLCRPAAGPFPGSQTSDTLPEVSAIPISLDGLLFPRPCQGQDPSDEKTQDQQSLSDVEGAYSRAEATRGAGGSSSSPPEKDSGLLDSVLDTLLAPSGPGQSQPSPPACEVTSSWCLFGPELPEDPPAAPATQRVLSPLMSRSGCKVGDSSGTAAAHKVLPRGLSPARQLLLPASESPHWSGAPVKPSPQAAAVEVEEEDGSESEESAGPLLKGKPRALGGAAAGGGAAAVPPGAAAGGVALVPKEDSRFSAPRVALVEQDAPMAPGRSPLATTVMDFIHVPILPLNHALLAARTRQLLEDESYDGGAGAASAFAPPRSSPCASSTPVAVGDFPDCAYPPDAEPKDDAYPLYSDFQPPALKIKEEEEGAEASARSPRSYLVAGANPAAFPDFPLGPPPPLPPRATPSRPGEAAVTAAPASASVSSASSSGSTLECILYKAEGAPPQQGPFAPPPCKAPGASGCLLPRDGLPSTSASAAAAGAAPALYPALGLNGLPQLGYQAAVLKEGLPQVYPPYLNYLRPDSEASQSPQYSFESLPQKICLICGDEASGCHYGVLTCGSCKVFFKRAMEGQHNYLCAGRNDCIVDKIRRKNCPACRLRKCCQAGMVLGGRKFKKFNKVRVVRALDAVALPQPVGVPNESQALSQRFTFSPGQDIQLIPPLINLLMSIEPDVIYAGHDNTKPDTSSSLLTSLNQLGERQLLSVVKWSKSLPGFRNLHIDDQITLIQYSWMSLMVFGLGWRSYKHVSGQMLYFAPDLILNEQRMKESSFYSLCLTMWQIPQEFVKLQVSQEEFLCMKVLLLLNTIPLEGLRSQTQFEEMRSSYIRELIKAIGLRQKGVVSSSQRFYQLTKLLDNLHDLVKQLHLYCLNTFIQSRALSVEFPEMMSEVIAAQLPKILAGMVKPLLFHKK
Briefly: PR Human Progesterone NHR Binding (Agonist Radioligand) Assay, T47D cytosol. The note with it: T47D cytosolic fractions, 0.5 nM [3H]progesterone, 1 hour at 4° C., Table 16. The protocol: Compounds were tested using the PR Human Progesterone NHR Binding (Agonist Radioligand) Assay, Cerep at Eurofins Discovery using a modified version of the protocol from Sarup et al. (Cancer Res 1988; 48:5071-5078). Briefly, cytosolic fractions of T47D cells were incubated with 0.5 nM [^3H]progesterone for 1 hour at 4° C. in the absence or presence of the test compound. Nonspecific binding was determined in the presence of 1 μM promegestone. Reactions were subjected to scintillation counting. Results are expressed as a percent inhibition of the control radioligand specific binding.

The next experiment concerns T47D cells. Briefly: Cellular growth inhibition assay for T47D cells, CellTiter-Glo. The experiment is classed as cell-based, human. The note with it: Homo sapiens, T47D, 72 h, 72 hours treatment, CellTiter-Glo 2.0 cell viability. The gist of the method: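 Cells are plated at 3000/well and allowed 24 h before treatment. Test compound in medium containing 0.5% DMSO is then added, with DMSO-only wells as negative control, and plates are incubated 72 h at 37 °C. ATP luminescence (CellTiter-Glo 2.0) is then fitted to four parameters to derive GI50.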
(ATP-based viability assays read luminescence as a measure of living cells.)

The target in another experiment is T2, androgen receptor (Homo sapiens, UniProt P10275).
T2 sequence (P10275 1-920 T878A): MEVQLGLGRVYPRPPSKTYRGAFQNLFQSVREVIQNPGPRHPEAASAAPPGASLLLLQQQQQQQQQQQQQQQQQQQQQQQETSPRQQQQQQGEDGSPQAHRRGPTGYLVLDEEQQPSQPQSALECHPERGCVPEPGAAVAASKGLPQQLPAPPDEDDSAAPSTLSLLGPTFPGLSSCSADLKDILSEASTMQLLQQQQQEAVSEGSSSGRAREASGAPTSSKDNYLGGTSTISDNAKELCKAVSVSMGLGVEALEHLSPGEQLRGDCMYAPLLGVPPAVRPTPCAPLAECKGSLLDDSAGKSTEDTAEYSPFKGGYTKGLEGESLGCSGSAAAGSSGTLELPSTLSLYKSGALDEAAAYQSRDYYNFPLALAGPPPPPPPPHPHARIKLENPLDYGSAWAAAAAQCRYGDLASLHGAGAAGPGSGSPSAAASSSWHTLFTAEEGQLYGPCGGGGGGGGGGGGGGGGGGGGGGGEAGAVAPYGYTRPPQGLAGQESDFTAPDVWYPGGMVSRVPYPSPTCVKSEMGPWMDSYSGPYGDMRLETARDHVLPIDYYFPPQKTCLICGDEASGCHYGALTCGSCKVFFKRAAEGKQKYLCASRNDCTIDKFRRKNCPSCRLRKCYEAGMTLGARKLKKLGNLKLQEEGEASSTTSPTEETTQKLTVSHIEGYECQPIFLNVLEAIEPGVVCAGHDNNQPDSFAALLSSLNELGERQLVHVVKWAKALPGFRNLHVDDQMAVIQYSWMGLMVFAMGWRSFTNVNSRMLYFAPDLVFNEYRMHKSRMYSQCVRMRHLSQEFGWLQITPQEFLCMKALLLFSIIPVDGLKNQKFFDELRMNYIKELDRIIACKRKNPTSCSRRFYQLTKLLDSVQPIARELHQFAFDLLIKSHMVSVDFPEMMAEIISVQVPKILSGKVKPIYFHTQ
Briefly: Assay for binding affinity to androgen receptor ([3H]methyltrienolone radioligand, cell cytosol). The note with it: 1 nM [3H]methyltrienolone, 24 hours at 4° C., Table 5. The method, then:
Fractions of cell cytosol ([…] cell/point) were incubated for 24 hours at 4° C. with 1 nM [^3H]methyltrienolone in the absence or presence of the test compound in a buffer containing 25 mM Hepes-Tris (pH 7.4), 1 mM EDTA, 10 mM Na2MoO4, 2 mM DTT, 5 μM triamcinolone acetonide, and 10% glycerol. Nonspecific binding was determined in the presence of 1 μM testosterone. Following incubation, the samples were filtered rapidly under vacuum through glass fiber filters (GF/B, Packard) presoaked with 0.3% PEI and rinsed several times with ice-cold 50 mM Tris-HCl using a 96-sample cell harvester (Unifilter, Packard). The filters were dried then counted for radioactivity in a scintillation counter (Topcount, Packard) using a scintillation cocktail (Microscint 0, Packard). The results are expressed as a percent inhibition of the control radioligand specific binding. The standard reference compound is testosterone, which is tested in each experiment at several concentrations to obtain a competition curve from which its IC50 is calculated.

The target of the next experiment is T3, BRD4-BD2 (Homo sapiens, UniProt O60885).
T3 construct: made in house; host or cells: T7 phage grown in an E. coli host derived from BL21
Briefly: bromoKdELECT assay for binding affinity to BRD4-BD2. The note with it: Table 7. The protocol:
(§1) Compounds were tested using a bromoKdELECT assay. T7 phage strains displaying bromodomains were grown in parallel in 24-well blocks in an E. coli host derived from the BL21 strain. E. coli were grown to log-phase and infected with T7 phage from a frozen stock (multiplicity of infection=0.4) and incubated with shaking at 32° C. until lysis (90-150 minutes). The lysates were centrifuged (5,000×g) and filtered (0.2 μm) to remove cell debris. Streptavidin-coated magnetic beads were treated with biotinylated small molecule or acetylated peptide ligands for 30 minutes at room temperature to generate affinity resins for bromodomain assays. The liganded beads were blocked with excess biotin and washed with blocking buffer (SeaBlock (Pierce), 1% BSA, 0.05% Tween 20, 1 mM DTT) to remove unbound ligand and to reduce nonspecific phage binding. Binding reactions were assembled by combining bromodomains, liganded affinity beads, and test compounds in 1× binding buffer (17% SeaBlock, 0.33×PBS, 0.04% Tween 20, 0.02% BSA, 0.004% Sodium azide, 7.4 mM DTT). Test compounds were prepared as 1000× stocks in 100% DMSO. Kds were determined using an 11-point 3-fold compound dilution series with one DMSO control point. All compounds for Kd measurements are distributed by acoustic transfer (non-contact dispensing) in 100% DMSO. The compounds were then diluted directly into the assays such that the final concentration of DMSO was 0.09%. All reactions performed in polypropylene 384-well plates. Each was a final volume of 0.02 ml. The assay plates were incubated at room temperature with shaking for 1 hour and the affinity beads were washed with wash buffer (1×PBS, 0.05% Tween 20). The beads were then resuspended in elution buffer (1×PBS, 0.05% Tween 20, 2 μM non-biotinylated affinity ligand) and incubated at room temperature with shaking for 30 minutes. The bromodomain concentration in the eluates was measured by qPCR.

Experiment [1] deals with T-Rex 293 cell line SC3 cells having increased expression of androgen receptor protein due to exposure to doxycycline. Put plainly: Cellular growth inhibition, T-Rex 293 SC3 cells with doxycycline (androgen receptor induced), CellTiter-Glo. The experiment is classed as cell-based. The note with it: 72 h, T-Rex 293 SC3 cells with 10 ng/mL doxycycline (increased androgen receptor expression). In a few lines:
(§2)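 SC3 is a T-Rex 293 clone stably transfected with wild-type androgen receptor in pcDNA4/TO, inducible by 10 ng/mL doxycycline. Cells were grown in phenol red-free DMEM with 10% charcoal-dextran FBS, with or without doxycycline, dosed 24 h after seeding (0.5% DMSO) for 72 h. Viability was read by CellTiter-Glo 2.0 luminescence and GI50 obtained from four-parameter fits.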

A further experiment concerns the target T4, BRD4-BD1 (Homo sapiens, UniProt O60885).
T4 construct: made in house; host or cells: T7 phage grown in an E. coli host derived from BL21
Briefly: bromoKdELECT assay for binding affinity to BRD4-BD1. The note with it: Table 6. The protocol: as §1, with “[…]” for “μM”

In experiment [2] the test system is T-Rex 293 cell line SC3 cells lacking increased expression of androgen receptor protein. Put plainly: Cellular growth inhibition, T-Rex 293 SC3 cells without doxycycline, CellTiter-Glo. The note with it: 72 h, T-Rex 293 SC3 cells not exposed to doxycycline, CellTiter-Glo 2.0. The class given is cell-based. The gist of the method:
as §2

For the compound `Cc1sc2c(c1C)C(c1ccc(N3CC(CC4CN(c5cnc(C(=O)N[C@H]6C(C)(C)[C@H](Oc7ccc(C#N)c(Cl)c7)C6(C)C)cn5)C4)C3)cc1)=N[C@@H](C)c1nnc(C)n1-2` [Compound I-503], the Ki at progesterone receptor is < 50 nM. Further, the GI50 with T47D cells is < 500 nM. Further, the Kd on androgen receptor was 50 to 500 nM.

`Cc1sc2c(c1C)C(c1ccc(Cl)cc1)=N[C@@H](CC(=O)NCCOCCOCCOC1CCN(c3ncc(C(=O)N[C@H]4C(C)(C)[C@H](Oc5ccc(C#N)c(Cl)c5)C4(C)C)cn3)C1)c1nnc(C)n1-2` (some centres unmarked) [Compound I-16]: the Kd at BRD4-BD2 was < 50 nM; on BRD4-BD1, 500 to 2500 nM. Moreover, the values for the GI50 in experiment [1] and in experiment [2] were < 500 nM and 1500 to 3000 nM, respectively.

Take `Cc1sc2c(c1C)C(c1ccc(Cl)cc1)=N[C@@H](CC(=O)NCCOCCOCCOC1CCCN(c3ncc(C(=O)N[C@H]4C(C)(C)[C@H](Oc5ccc(C#N)c(Cl)c5)C4(C)C)cn3)C1)c1nnc(C)n1-2` (some centres unmarked) [Compound I-15]: the GI50 in experiment [1] is < 500 nM; in experiment [2], 1500 to 3000 nM. For the same compound, the Kd was 500 to 2500 nM at BRD4-BD1 and < 50 nM at androgen receptor.
